The IC50 is the concentration that gives 50% inhibition. A word on the inhibition: it is the drop in the measured response relative to a control, in per cent.

The first assay deals with K562. Briefly: cells. The arrangement: MTT cell viability of wild-type K562 beside EPHB4 mutant sublines, 48 h. The conditions noted are these: Homo sapiens, K562, 48 h; read-out: IC50 (uM) K562-WT. On the procedure: Exponential‐phase cells were seeded into 96‐well plates at a density of 2 × 10^4 cells per well in complete medium. After 24 h, cells were treated with drugs at indicated concentrations and incubated for 48 h. Fresh medium containing 20 μL MTT solution (5 mg·mL^−1) was then added to each well. Then plates were incubated for another 4 h at 37 °C. After removing the medium, 150 μL DMSO was added to each well. The absorbance was recorded at 490 nm in the microplate reader and the inhibition ratio (I%) was calculated. The cell growth assay was conducted as described previously. […] Similar results were shown for M4 mutants. […] (a) Three‐dimensional structure graph; (b) binding region; (c) plane schematic of interaction between the receptor and ligand. (B) Genomic position of sgRNAs and PAMs for EPHB4 knock‐out line, PAM site was colored in red. (C) The protein expression of EPHB4 in K562, K562‐Crispr‐1 and K562‐Crispr‐2 cells determined by western blot assay. P‐values were generated by one‐way ANOVA using the Tukey test for multiple comparisons. **P < 0.01 versus the K562 group. […] P‐values were generated by one‐way ANOVA using the Tukey test for multiple comparisons. *P < 0.05 versus the K562 group. (E) Five point‐mutation (M1–M5) and their corresponding wild‐type (WT) sequences. The point‐mutations of EPHB4: M1, I14A, G15A; M2, M83A, N85A, G86A; M3, A87Del; M4, S90A, F91A; M5, R93A, L94A. […]
On to `COc1cc2c(Nc3ccc(Br)cc3F)ncnc2cc1OCC1CCN(C)CC1` [vandetanib, N‐(4‐bromo‐2‐fluorophenyl)‐6‐methoxy‐7‐[(1‐methylpiperidin‐4‐yl)methoxy]quinazolin‐4‐amine], for which the 50% inhibitory concentration (IC50) was 2.05 ± 1.08 µM.

Another assay concerns the target T1, ephrin type‐B receptor 4 (EPHB4) (Homo sapiens, UniProt P54760).
T1 construct: EPHB4 kinase (Carna Biosciences)
T1 sequence (P54760 16-987): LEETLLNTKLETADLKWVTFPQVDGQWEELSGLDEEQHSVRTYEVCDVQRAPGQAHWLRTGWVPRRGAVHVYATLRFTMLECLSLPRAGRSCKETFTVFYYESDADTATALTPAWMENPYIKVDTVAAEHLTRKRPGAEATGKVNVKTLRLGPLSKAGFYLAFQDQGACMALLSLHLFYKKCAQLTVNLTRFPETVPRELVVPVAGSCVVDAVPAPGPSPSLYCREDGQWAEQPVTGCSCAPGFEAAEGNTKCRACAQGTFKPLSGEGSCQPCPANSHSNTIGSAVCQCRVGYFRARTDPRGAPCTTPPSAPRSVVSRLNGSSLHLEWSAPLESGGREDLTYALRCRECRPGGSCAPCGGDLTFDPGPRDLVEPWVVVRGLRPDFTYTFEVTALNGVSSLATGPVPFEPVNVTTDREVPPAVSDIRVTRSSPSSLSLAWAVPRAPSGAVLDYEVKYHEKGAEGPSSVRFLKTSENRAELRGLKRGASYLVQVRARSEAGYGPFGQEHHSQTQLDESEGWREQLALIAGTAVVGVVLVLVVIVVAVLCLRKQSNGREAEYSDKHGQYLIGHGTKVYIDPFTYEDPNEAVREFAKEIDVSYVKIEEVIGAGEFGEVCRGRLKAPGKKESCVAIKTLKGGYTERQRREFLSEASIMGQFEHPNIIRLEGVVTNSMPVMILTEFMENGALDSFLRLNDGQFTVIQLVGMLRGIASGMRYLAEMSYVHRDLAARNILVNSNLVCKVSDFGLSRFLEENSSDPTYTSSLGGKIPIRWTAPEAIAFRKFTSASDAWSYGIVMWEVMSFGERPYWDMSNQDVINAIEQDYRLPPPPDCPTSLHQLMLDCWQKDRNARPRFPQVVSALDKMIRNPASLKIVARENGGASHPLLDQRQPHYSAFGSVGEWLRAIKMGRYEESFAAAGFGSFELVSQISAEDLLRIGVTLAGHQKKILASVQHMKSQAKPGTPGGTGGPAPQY
Put plainly: Kinase‐Glo Plus luminescence kinase assay; SPR binding also measured.
Conditions: not given
It is filed as biochemical. The text has this:
Kinase‐Glo Plus luminescence kinase assay; SPR binding also measured on ephrin type‐B receptor 4 (EPHB4) | […]
Take `Cc1ccc(C(=O)Nc2cccc(C(F)(F)F)c2)cc1Nc1nc(-c2cccnc2)nc2c1cnn2C` [NVP‐BHG712]: the IC50 is 349 nM.

A further assay concerns H9 cells. Briefly: cells. Particulars: Homo sapiens, H9, 48 h. Set-up: MTT cell growth inhibition after 48 h. How it is done:
(§1) Exponential‐phase cells were seeded into 96‐well plates at a density of 2 × 10^4 cells per well in complete medium. After 24 h, cells were treated with drugs at indicated concentrations and incubated for 48 h. Fresh medium containing 20 μL MTT solution (5 mg·mL^−1) was then added to each well. Then plates were incubated for another 4 h at 37 °C. After removing the medium, 150 μL DMSO was added to each well. The absorbance was recorded at 490 nm in the microplate reader and the inhibition ratio (I%) was calculated. The cell growth assay was conducted as described previously. […] To identify an EPHB4‐specific inhibitor with a potential of rapid translation into clinic, a pool of clinically approved TKIs and compounds was screened in this study (Fig. S2 and Table S4).
Compound `COc1cc2c(Nc3ccc(Br)cc3F)ncnc2cc1OCC1CCN(C)CC1` [vandetanib, N‐(4‐bromo‐2‐fluorophenyl)‐6‐methoxy‐7‐[(1‐methylpiperidin‐4‐yl)methoxy]quinazolin‐4‐amine] registered an IC50 of 11200 ± 1080 nM.

Another assay relates to K562. Briefly: cells. The arrangement: MTT cell growth inhibition after 48 h. Particulars: Homo sapiens, K562, 48 h. On the procedure: as §1
Compound `COc1cc2c(Nc3ccc(Br)cc3F)ncnc2cc1OCC1CCN(C)CC1` [vandetanib, N‐(4‐bromo‐2‐fluorophenyl)‐6‐methoxy‐7‐[(1‐methylpiperidin‐4‐yl)methoxy]quinazolin‐4‐amine] showed an IC50 of 2180 ± 1070 nM.

Another assay deals with MEG-01 cells. Put plainly: cells. The arrangement: MTT cell growth inhibition after 48 h. The conditions noted are these: Homo sapiens, MEG-01, 48 h. On the procedure:
as §1
As to `COc1cc2c(Nc3ccc(Br)cc3F)ncnc2cc1OCC1CCN(C)CC1` [vandetanib, N‐(4‐bromo‐2‐fluorophenyl)‐6‐methoxy‐7‐[(1‐methylpiperidin‐4‐yl)methoxy]quinazolin‐4‐amine], the IC50 worked out at 1460 ± 1070 nM.

The test system of a further assay is K562. Put plainly: cells. Set-up: MTT cell growth inhibition assay, absorbance at 490 nm. The conditions noted are these: Homo sapiens, K562, 48 h, read-out: Inhibition rate (%, 10 μM). On the procedure:
as §1, with “previously. K562 cells were cultured in IMDM containing 10% fetal bovine serum, 100 U·mL^−1 penicillin and 100 U·mL^−1 streptomycin. […] MEG‐01 cells were cultured in DMEM containing 10% fetal bovine serum, 100 U·mL^−1 penicillin and 100 U·mL^−1 streptomycin. […] Cells were grown at 37 °C in a humidified atmosphere with 5% CO2.” for “previously.”
For the compound `CC[C@H]1CN2CC[C@]3(C(=O)Nc4ccccc43)[C@@H]2C[C@@H]1/C(=C\OC)C(=O)OC` [rhynchophylline], the inhibition at 10 µM was -47.3%.

For the compound `CC(C)(C)NCC(O)c1ccc(O)c(CO)c1` (stereo not drawn) [salbutamol], the inhibition at 10 µM is -65.8%. As for `OCc1cc(C(O)CNCCCCCCOCCCCc2ccccc2)ccc1O` (stereo not drawn) [salmeterol], the inhibition at 10 µM is -72.7%. As to `O=C(/C=C/c1ccc(O)c(O)c1/C=C/c1ccc(O)c(O)c1)O[C@H](Cc1ccc(O)c(O)c1)C(=O)O` [salvianolic acid A], the inhibition at 10 µM is -32.3%. For `O=C(/C=C/c1ccc(O)c2c1[C@H](C(=O)O[C@H](Cc1ccc(O)c(O)c1)C(=O)O)[C@@H](c1ccc(O)c(O)c1)O2)O[C@H](Cc1ccc(O)c(O)c1)C(=O)O` [salvianolic acid B], the inhibition at 10 µM is -40.8%. Still for that read-out and setting: the value for `O=C(/C=C/c1ccc(O)c2oc(-c3ccc(O)c(O)c3)cc12)O[C@H](Cc1ccc(O)c(O)c1)C(=O)O` [salvianolic acid C] was -2.73%; that for `CC(C)(C)NC(=O)[C@@H]1C[C@@H]2CCCC[C@@H]2CN1C[C@@H](O)[C@H](Cc1ccccc1)NC(=O)[C@H](CC(N)=O)NC(=O)c1ccc2ccccc2n1` [saquinavir] was -30.4%; that for `CNC(=O)c1cc(Oc2ccc(NC(=O)Nc3ccc(Cl)c(C(F)(F)F)c3)cc2)ccn1` [sorafenib] was 73.4%. With `CC(C)NCC(O)c1ccc(NS(C)(=O)=O)cc1` (stereo not drawn) [sotalol], the inhibition at 10 µM is -52.8%. Consider `CCN(CC)CCNC(=O)c1c(C)[nH]c(/C=C2\C(=O)Nc3ccc(F)cc32)c1C` [sunitinib], for which the inhibition at 10 µM was found to be 73.5%.

In the case of `O=C1Nc2ccc(Cl)cc2[C@@](C#CC2CC2)(C(F)(F)F)O1` [sustiva], the inhibition at 10 µM was -40.1%. Regarding `CCOc1ccccc1OCCN[C@H](C)Cc1ccc(OC)c(S(N)(=O)=O)c1` [tamsulosin], the inhibition at 10 µM was -35.2%.

In the case of `CCCc1nc2c(C)cc(-c3nc4ccccc4n3C)cc2n1Cc1ccc(-c2ccccc2C(=O)O)cc1` [telmisartan], the inhibition at 10 µM is -8.14%. Take `COc1cc2nc(N3CCN(C(=O)C4CCCO4)CC3)nc(N)c2cc1OC` (stereo not drawn) [terazosin]: the inhibition at 10 µM is -57%. As for `CC(C)(C)NCC(O)c1cc(O)cc(O)c1` (stereo not drawn) [terbutaline], the inhibition at 10 µM is -58.2%.

On to `COc1cc2c(cc1OC)[C@@H]1Cc3ccc(OC)c(OC)c3CN1CC2` [tetrahydropalmatine], for which the inhibition at 10 µM was -83.4%. For the compound `CC(C)[C@H](N)C(=O)OCCOCn1cnc2c(=O)nc(N)[nH]c21` [valaciclovir], the inhibition at 10 µM was -63.9%. `CCCCC(=O)N(Cc1ccc(-c2ccccc2-c2nnn[nH]2)cc1)[C@H](C(=O)O)C(C)C` [valsartan]: the inhibition at 10 µM was -32.4%. For the compound `COc1cc2c(Nc3ccc(Br)cc3F)ncnc2cc1OCC1CCN(C)CC1` [vandetanib, N‐(4‐bromo‐2‐fluorophenyl)‐6‐methoxy‐7‐[(1‐methylpiperidin‐4‐yl)methoxy]quinazolin‐4‐amine], the inhibition at 10 µM came to 99.7%. Same read-out and setting: the value for `COc1cc(C=O)ccc1O` [vanillin] was -86.2%; that for `COc1ccc(CCN(C)CCCC(C#N)(c2ccc(OC)c(OC)c2)C(C)C)cc1OC` (stereo not drawn) [verapamil] was 66%; that for `COc1c2occc2cc2ccc(=O)oc12` [xanthotoxin] was -42.2%.

On to `Cc1cn([C@H]2C[C@H](N=[N+]=[N-])[C@@H](CO)O2)c(=O)[nH]c1=O` [zidovudine], for which the inhibition at 10 µM amounted to 10.3%.

The same assay, now with this note: Homo sapiens, K562, 48 h; read-out: Inhibition rate (%, 10 μM).
As for `COC1=C[C@@H]2[C@@H]3Cc4ccc(OC)c(O)c4[C@]2(CCN3C)CC1=O` [sinomenine], the inhibition at 10 µM was -4.7%. For `COC1=CC=C2[C@H]3Cc4ccc(OC)c5c4[C@@]2(CCN3C)[C@H]1O5` [thebaine], the inhibition at 10 µM is -58.3%.
